According to patent US10024862B2, “Recognition of cellular target binding by a bioactive agent using intracellular bioluminescence resonance energy transfer” (Promega Corporation, priority 2012, dated 2018):

Experiments:
[1] = target: 11S-BRD4/114-Histone H3.3 complex (Homo sapiens, UniProt O60885); assay: Competitive displacement of iBET-NCT tracer from 11S-BRD4/Histone H3.3-114 complex, BRET (Example 22); assay type: binding; conditions: HEK293 cells, 2 uM iBET-NCT/PBI-4966 tracer, FIG. 28
PKCalpha-NanoLuc [2] = target: T1, PKCalpha-NanoLuc (Homo sapiens, UniProt P17252); assay: Tracer BRET with PKCalpha-NanoLuc in MAPK panel (Example 12); assay type: binding; conditions: HEK293 cells, 2 uM tracer with or without 4 uM BIRB796, FIG. 13
T1 construct: expressed in transfected cells; host or cells: HEK293
Protocol: (§1) Cells were incubated at 37° C. for two hours. […] To determine response ratios, the BRET values with tracer alone were divided by the BRET values with tracer+unmodified BIRB796.

NanoLuc-p38alpha = target: T2, NanoLuc-p38alpha (Homo sapiens, UniProt Q16539); assay: BRET tracer binding to NanoLuc-p38alpha in HEK293 cells (Example 10); conditions: serially-diluted tracer, 37° C. two hours, FIG. 11
T2 construct: expressed in transfected cells; host or cells: HEK293
T2 sequence (Q16539 whole entry): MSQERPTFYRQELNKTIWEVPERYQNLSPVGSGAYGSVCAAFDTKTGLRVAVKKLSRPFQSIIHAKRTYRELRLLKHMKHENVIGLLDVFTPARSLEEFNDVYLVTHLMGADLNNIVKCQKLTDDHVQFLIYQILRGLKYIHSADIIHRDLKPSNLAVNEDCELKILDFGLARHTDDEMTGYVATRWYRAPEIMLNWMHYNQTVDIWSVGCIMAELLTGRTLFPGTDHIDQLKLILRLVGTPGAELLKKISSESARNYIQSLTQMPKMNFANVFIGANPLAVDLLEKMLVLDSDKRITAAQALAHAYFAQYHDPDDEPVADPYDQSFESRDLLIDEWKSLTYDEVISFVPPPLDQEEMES
Protocol: (§2) Cells were incubated at 37° C. for two hours.

PKCalpha-NanoLuc [3] = target: T1, PKCalpha-NanoLuc; assay: Tracer affinity BRET, PKCalpha-NanoLuc (Example 13); assay type: binding; conditions: HEK293 cells, serially-diluted tracer with or without 4 uM BIRB796, FIGS. 14 and 15
Protocol: as §2

[4] = system: NanoLuc fusions to various members of the MAPK pathway; assay: Tracer selectivity across p38/MAPK pathway NanoLuc fusions, BRET response ratio (Example 12); assay type: binding; conditions: HEK293 cells, 2 uM tracer with or without 4 uM BIRB796, FIG. 13
Protocol: as §1

[5] = system: panel of 11 kinases (N- and C-terminal NanoLuc fusions); assay: NanoLuc fusion protein array screen, cell-free TNT expression, BRET response ratio (Example 17); assay type: binding; conditions: cell-free TNT reactions diluted 1:100, tracer with or without excess free drug, 2 h room temperature, FIG. 19
Protocol: Each TNT® reaction was diluted 1:100 in PBS and plated in replicates into wells of 96-well plates. […] For each TNT® reaction, 4 replicates with 2 uM BIRB TOM/4 replicates with 2 uM BIRB-TOM+4 uM BIRB796 (total of 2×96-well plates) and 4 replicas with 1 uM Dasatinib-TOM/4 replicates with 1 uM Dasatinib-TOM+5 uM Dasatinib (total of 2×96-well plates) were performed. The reactions were incubated with constant mixing for 2 h at room temperature. […] To determine response ratios, the BRET values with tracer alone were divided by the BRET values with tracer+unmodified.

NanoLuc-HDAC6 [6] = target: T3, NanoLuc-HDAC6 (Homo sapiens, UniProt Q9UBN7); assay: Tracer affinity BRET, NanoLuc-HDAC6 (Example 13); assay type: binding; conditions: HEK293 cells, serially-diluted tracer with or without 4 uM BIRB796, FIGS. 14 and 15
T3 construct: expressed in transfected cells; host or cells: HEK293
T3 sequence (Q9UBN7 with tags, fused parts or gaps): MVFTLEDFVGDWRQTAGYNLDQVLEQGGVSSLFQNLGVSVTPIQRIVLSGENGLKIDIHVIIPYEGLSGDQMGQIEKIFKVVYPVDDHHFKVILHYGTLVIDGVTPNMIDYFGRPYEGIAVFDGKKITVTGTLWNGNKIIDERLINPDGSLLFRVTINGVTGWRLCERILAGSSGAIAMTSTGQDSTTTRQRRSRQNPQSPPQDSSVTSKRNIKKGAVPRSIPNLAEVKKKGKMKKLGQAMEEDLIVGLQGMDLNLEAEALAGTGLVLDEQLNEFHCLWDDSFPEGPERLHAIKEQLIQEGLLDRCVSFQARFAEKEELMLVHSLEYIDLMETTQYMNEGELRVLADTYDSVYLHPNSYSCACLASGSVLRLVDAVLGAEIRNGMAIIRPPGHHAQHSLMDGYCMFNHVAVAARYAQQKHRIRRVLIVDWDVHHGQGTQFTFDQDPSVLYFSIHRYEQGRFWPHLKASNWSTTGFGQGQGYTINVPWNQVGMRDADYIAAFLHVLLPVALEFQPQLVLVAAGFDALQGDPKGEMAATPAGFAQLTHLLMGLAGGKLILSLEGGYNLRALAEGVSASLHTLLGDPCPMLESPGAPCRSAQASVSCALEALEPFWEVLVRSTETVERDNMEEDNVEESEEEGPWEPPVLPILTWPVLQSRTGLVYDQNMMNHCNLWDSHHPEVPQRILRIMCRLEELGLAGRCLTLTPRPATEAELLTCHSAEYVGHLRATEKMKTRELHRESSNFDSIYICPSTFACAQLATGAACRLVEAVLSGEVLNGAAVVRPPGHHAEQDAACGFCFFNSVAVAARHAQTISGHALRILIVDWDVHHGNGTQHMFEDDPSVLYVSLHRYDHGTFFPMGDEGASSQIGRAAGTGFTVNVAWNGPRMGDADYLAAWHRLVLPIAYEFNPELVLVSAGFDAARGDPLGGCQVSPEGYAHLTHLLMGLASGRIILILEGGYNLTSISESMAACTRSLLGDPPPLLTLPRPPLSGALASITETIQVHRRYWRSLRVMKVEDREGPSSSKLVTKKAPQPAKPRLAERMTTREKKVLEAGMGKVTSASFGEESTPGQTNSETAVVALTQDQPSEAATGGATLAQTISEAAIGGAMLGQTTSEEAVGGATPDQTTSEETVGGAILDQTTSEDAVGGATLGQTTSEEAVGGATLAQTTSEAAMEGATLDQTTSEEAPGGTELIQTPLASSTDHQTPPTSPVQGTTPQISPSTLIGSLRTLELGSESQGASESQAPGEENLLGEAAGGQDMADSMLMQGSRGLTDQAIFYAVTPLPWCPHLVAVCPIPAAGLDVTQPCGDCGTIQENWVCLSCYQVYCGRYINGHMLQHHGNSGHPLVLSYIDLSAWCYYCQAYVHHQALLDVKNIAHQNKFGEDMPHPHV
Protocol: as §2

HDAC2 = target: T4, HDAC2 (Homo sapiens, UniProt Q92769); assay: SAHA tracer BRET with HDAC2 NANOLUC fusion in HeLa cells (Example 23); assay type: binding; conditions: FIG. 29
T4 construct: expressed in transfected cells; host or cells: HeLa
T4 sequence (Q92769 whole entry, the tested form may be a part): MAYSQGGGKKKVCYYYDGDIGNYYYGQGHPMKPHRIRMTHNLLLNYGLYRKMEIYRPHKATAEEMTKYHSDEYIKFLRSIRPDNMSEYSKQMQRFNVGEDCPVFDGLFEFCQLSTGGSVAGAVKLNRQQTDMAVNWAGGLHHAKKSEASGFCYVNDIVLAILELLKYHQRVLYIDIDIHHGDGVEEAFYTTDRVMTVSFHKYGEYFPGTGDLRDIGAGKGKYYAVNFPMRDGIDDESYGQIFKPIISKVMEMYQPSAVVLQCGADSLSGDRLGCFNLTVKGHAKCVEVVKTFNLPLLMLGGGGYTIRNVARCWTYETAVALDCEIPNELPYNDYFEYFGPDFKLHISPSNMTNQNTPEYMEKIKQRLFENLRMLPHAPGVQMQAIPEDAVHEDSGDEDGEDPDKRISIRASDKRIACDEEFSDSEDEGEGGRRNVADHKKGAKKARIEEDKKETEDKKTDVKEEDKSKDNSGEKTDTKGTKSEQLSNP
Protocol: (§3) HeLa cells were transfected with plasmid DNA encoding NANOLUC fusions with the entire family of non-sirtuin histone deacetylases (HDACs 1-11). […] Cells were incubated at 37° C. for two hours. […] BRET was then measured on a BMG Clariostar luminometer equipped with 450 nm bandpass and 610 nm longpass filters. […] To determine specific, background corrected BRET values, the nonspecific BRET values at each concentration of tracer were subtracted from BRET values with tracer alone.

HDAC6 = target: T5, HDAC6 (Homo sapiens, UniProt Q9UBN7); assay: SAHA tracer BRET with HDAC6 NANOLUC fusion in HeLa cells (Example 23); assay type: binding; conditions: FIG. 30
T5 construct: expressed in transfected cells; host or cells: HeLa
T5 sequence (Q9UBN7 with tags, fused parts or gaps): as the sequence (Q9UBN7 with tags, fused parts or gaps) above
Protocol: as §3

Class IIa HDACs = assay: SAHA tracer BRET with Class IIa HDAC NANOLUC fusions in HeLa cells (Example 23); assay type: binding; conditions: FIG. 31
Protocol: as §3

HDAC8 = target: T6, HDAC8 (Homo sapiens, UniProt Q9BY41); assay: SAHA tracer BRET with HDAC8 NANOLUC fusion in HeLa cells (Example 23); assay type: binding; conditions: FIG. 29
T6 construct: expressed in transfected cells; host or cells: HeLa
T6 sequence (Q9BY41 1-377): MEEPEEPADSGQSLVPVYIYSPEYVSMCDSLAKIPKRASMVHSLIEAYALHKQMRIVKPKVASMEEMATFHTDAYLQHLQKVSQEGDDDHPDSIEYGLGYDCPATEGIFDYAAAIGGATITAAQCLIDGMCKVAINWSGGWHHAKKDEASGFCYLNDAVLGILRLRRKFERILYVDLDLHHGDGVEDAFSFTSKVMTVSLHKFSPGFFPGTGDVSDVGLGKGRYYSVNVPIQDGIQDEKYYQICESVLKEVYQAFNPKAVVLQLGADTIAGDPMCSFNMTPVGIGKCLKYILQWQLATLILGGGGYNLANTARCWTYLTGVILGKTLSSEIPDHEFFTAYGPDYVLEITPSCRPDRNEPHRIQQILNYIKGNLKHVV
Protocol: as §3

HDAC3 = target: T7, HDAC3 (Homo sapiens, UniProt O15379); assay: SAHA tracer BRET with HDAC3 NANOLUC fusion in HeLa cells (Example 23); assay type: binding; conditions: FIG. 29
T7 construct: expressed in transfected cells; host or cells: HeLa
T7 sequence (O15379 whole entry, the tested form may be a part): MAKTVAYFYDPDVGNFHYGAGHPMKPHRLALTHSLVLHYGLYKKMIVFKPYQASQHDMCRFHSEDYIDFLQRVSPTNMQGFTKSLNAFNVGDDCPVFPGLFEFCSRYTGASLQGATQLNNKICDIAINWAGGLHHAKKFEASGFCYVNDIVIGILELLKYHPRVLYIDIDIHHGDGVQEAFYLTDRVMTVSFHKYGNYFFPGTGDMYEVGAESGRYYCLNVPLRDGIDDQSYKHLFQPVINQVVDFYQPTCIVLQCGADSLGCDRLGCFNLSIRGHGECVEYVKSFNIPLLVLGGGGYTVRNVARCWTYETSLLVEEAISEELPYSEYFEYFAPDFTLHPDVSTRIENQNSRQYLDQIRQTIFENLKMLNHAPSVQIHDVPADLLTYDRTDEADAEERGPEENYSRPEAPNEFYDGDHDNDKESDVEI
Protocol: as §3

HDAC10 = target: T8, HDAC10 (Homo sapiens, UniProt Q969S8); assay: SAHA tracer BRET with HDAC10 NANOLUC fusion in HeLa cells (Example 23); assay type: binding; conditions: FIG. 30
T8 construct: expressed in transfected cells; host or cells: HeLa
T8 sequence (Q969S8 1-669): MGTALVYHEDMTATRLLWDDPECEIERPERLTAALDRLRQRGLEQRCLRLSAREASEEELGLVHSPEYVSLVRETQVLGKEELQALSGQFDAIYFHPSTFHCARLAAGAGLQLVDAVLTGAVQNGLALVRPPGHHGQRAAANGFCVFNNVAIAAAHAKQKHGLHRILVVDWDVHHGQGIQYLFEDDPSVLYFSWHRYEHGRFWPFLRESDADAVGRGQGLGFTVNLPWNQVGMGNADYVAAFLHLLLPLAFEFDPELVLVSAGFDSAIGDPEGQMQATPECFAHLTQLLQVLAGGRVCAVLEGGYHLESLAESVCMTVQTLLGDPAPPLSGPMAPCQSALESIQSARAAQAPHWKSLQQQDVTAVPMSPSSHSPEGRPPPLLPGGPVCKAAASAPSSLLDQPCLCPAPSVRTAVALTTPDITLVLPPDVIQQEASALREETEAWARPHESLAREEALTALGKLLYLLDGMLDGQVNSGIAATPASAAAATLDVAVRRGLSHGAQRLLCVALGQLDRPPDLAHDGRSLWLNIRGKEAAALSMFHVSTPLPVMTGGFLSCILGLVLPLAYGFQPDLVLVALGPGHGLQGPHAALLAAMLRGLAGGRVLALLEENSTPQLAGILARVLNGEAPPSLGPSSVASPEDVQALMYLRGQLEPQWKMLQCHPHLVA
Protocol: as §3

HDAC1 = target: T9, HDAC1 (Homo sapiens, UniProt Q13547); assay: SAHA tracer BRET with HDAC1 NANOLUC fusion in HeLa cells (Example 23); assay type: binding; conditions: FIG. 29
T9 construct: expressed in transfected cells; host or cells: HeLa
T9 sequence (Q13547 whole entry, species assumed, the tested form may be a part): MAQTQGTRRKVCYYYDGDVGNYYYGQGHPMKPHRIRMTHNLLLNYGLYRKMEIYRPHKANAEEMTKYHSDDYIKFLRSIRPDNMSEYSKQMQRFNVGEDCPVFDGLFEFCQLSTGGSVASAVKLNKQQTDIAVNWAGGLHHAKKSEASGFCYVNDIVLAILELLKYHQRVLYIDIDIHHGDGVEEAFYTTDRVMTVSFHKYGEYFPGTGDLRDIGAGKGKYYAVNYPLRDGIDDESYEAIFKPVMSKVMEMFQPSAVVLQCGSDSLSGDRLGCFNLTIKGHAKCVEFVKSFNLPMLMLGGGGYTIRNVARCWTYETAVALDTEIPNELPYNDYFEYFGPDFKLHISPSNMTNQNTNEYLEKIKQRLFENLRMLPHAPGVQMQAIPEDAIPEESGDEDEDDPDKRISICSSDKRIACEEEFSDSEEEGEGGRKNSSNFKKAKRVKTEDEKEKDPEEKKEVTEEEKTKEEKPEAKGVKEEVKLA
Protocol: as §3

NanoLuc-HDAC6 [7] = target: T3, NanoLuc-HDAC6; assay: Intracellular BRET tracer binding to NanoLuc-HDAC6 (Example 1); conditions: HEK293 cells, compared to SAHA-TMR (PBI-4967), FIG. 2
Protocol: HEK293 cells were transfected using FuGene HD (Promega Corp.) with plasmid DNA encoding a NanoLuc-HDAC6 fusion protein. NanoLuc-HDAC6 DNA was diluted 1:1000 with a promoterless carrier DNA (pGEM3Z) to yield a final concentration of 50 ng/well total DNA in 96-well plate format (at a seeding density of 20,000 cells/well). Twenty-four hours post-transfection, cells were then incubated with serially-diluted tracer in the presence or absence of a molar excess of unlabeled SAHA (as a specificity control). Following equilibration with the drug tracers, furimazine (a coelenterazine derivative substrate for NanoLuc; Promega Corp.) was added at a concentration of 20 uM, and BRET was quantified on a Varioskan luminometer. The specific BRET signal was calculated by subtracting the non-specific signal (in the presence of unlabeled SAHA) from the signal generated from the SAHA tracer alone.

NanoLuc-HDAC6 [8] = target: T3, NanoLuc-HDAC6; assay: Competitive displacement of SAHA-TOM tracer from NanoLuc-HDAC6, BRET (Example 15); assay type: binding; conditions: HEK293 cells, serially-diluted inhibitor with 1 uM SAHA-TOM (PBI-4968), two hours, FIG. 17

## COc1cc2c(cc1-c1c(C)noc1C)ncc1[nH]c(=O)n([C@H](C)c3ccccn3)c12 [IBET 151]
[1]
  effect on BRET signal (competitive binding): diminished in a dose-dependent manner

## CC(C)(C)c1cc(NC(=O)Nc2ccccc2)n(-c2cccc(CNC(=O)CN)c2)n1 [PBI-4838]
PKCalpha-NanoLuc [2]
  specific BRET signal: relatively little specific BRET signal
NanoLuc-p38alpha
  EC50: 38 nM
PKCalpha-NanoLuc [3]
  specific BRET signal: relatively little specific BRET signal
[4]
  selectivity of tracer (targets giving specific BRET): Jnk2, p38beta and p38alpha
[5]
  selectivity of tracer (hits in NanoLuc fusion array): JNk2, JNk3, MAPK14, MAPK11 and MAPK13
NanoLuc-HDAC6 [6]
  specific BRET signal: relatively little specific BRET signal

## O=C(CCCCCCC(=O)Nc1ccc(CNC(=O)c2ccc(C(=O)O)c(C3=c4cc5c6c(c4Oc4c3cc3c7c4CCCN7CCCC3)CCC[N+]=6CCCC5)c2)cc1)NO [PBI-4968]
HDAC2
  BRET with tracer: specific BRET signals
HDAC6
  BRET with tracer: specific BRET
Class IIa HDACs
  BRET with tracer: do not generate significant BRET
HDAC8
  BRET with tracer: specific BRET signals
HDAC3
  BRET with tracer: specific BRET signals
HDAC10
  BRET with tracer: specific BRET
HDAC1
  BRET with tracer: specific BRET signals
NanoLuc-HDAC6 [7]
  EC50 value for binding within living cells: left-shifted EC50 value
  specific BRET signal: superior, specific BRET signal

## Cc1nc(Nc2ncc(C(=O)Nc3c(C)cccc3Cl)s2)cc(N2CCN(CCOC(=O)NCCCCCNC(=O)c3ccc(C(=O)O)c(C4=c5cc6c7c(c5Oc5c4cc4c8c5CCCN8CCCC4)CCC[N+]=7CCCC6)c3)CC2)n1 [PBI-5170]
[5]
  selectivity of tracer (hits in NanoLuc fusion array): ABL1, Src, LCK, MEK5, MAPK11 and MAPK14

## O=C(CCCCCCC(=O)Nc1ccccc1)NO [SAHA, suberoylanilide hydroxamic acid]
NanoLuc-HDAC6 [8]
  binding efficiency to HDAC6: high binding efficiency
